Earlier results on eleven compounds are cited in PubChem BioAssay AID1259410 (Chemical Carcinogenesis Research Information System (CCRIS), 2018).

The subject of this data set is rodent tumor promotion studies, tumor incidence. As to the kind of experiment: CCRIS tumor promotion studies.

Regarding `[K+]`, the outcome (Carcinogen: N-BIS-(2-HYDROXYPROPYL)NITROSAMINE [53609-64-6], Doses [Carcinogen]: 2800 MG/KG BW ONCE (STUDY DURATION: 83 WK), Doses [Promoter]: 1000 PPM IN DRINKING WATER FOR 82 WK BEGINNING 1 WK POST LAST CARCINOGEN DOSE (STUDY DURATION: 83 WK), Route [Carcinogen]: SUBCUTANEOUS, Route [Promoter]: ORAL, Species: RAT, Strain/Sex: F344/MALE) is reported as “thyroid gland: follicular cell carcinoma”; the outcome (Carcinogen: N-Ethyl-N-hydroxyethylnitrosamine, 13147-25-6, Doses [Carcinogen]: 500 ppm in drinking water for 2 wk, Doses [Promoter]: 0, 350, 1750 ppm in drinking water beginning post carcinogen treatment and continuing for 24 wk (study duration: 26 wk), Doses [Promoter]: 0, 350, 1750 ppm in drinking water beginning post carcinogen treatment and continuing for 24 wk (study duration: 26 wk), Route [Carcinogen]: Oral, Route [Promoter]: Oral, Species: Rat, Strain/Sex: F344/Male (15/group)) is “kidney: renal cell tumors (no promoting effect observed)”.
Turning to `CC(C)(c1cc(Br)c(O)c(Br)c1)c1cc(Br)c(O)c(Br)c1`, the outcome (Carcinogen: N-bis(2-hydroxypropyl)nitrosamine, 53609-64-6, Doses [Carcinogen]: 0.08 and 0.2% in drinking water for 4 wks at 7-10 wks of age, study duration to 39 wk of age, Doses [Promoter]: In utero (0.01, 0.1, or 1% in diet of dams) and then in drinking water of weaned offspring for 2 wk, Route [Carcinogen]: Oral, Route [Promoter]: In utero and in drinking water, Species: Rat, Strain/Sex: F344/Male (12-15/group)) is given as “none found”.
Consider `C#CCN(C)Cc1ccccc1`, for which, under “Carcinogen: AZOXYMETHANE, 25843-45-2, Doses [Carcinogen]: 7.4 MG/KG BW IN 0.9% SALINE 1/WK FOR 10 WK, Doses [Promoter]: 0, 50 MG/KG BW 1/2 D FOR 35 WK (STUDY DURATION: 35 WK), Route [Carcinogen]: SUBCUTANEOUS, Route [Promoter]: SUBCUTANEOUS, Species: RAT, Strain/Sex: WISTAR/MALE”, the outcome was “colon: tumor”.
For `O=C1O[C@H]([C@H](O)CO)C(O)=C1O`, the outcome is, setting by setting: (Carcinogen: N-BUTYL-N-(4-HYDROXYBUTYL)NITROSAMINE, 3817-11-6, Doses [Carcinogen]: 0.05% IN DRINKING WATER FOR 4 WK, Doses [Promoter]: 0, 5% IN DIET FOR 32 WK (STUDY DURATION: 36 WK), Route [Carcinogen]: ORAL, Route [Promoter]: ORAL, Species: RAT, Strain/Sex: F344/MALE) “urinary bladder: papilloma, carcinoma”; (Carcinogen: N-BUTYL-N-(4-HYDROXYBUTYL)NITROSAMINE, 3817-11-6, Doses [Carcinogen]: 0.05% IN DRINKING WATER FOR 4 WK, Doses [Promoter]: 0, 5% IN DIET FOR 32 WK BEGINNING POST CARCINOGEN (STUDY DURATION: 36 WK), Route [Carcinogen]: ORAL, Route [Promoter]: ORAL, Species: RAT, Strain/Sex: F344/MALE) “bladder: papilloma, carcinoma”.
Consider `CCN(CC)CCCC(C)Nc1c2ccc(Cl)cc2nc2ccc(OC)cc12` (stereo unspecified), for which the outcome is, setting by setting: (Carcinogen: N-NITROBIS(2-OXOPROPYL)AMINE, 60599-38-4, Doses [Carcinogen]: 10 MG/KG BW 1/WK FOR 3 WK, Doses [Promoter]: 0, 100 PPM IN DIET FOR 37 WK BEGINNING POST CARCINOGEN TREATMENT (STUDY DURATION: 40 WK), Route [Carcinogen]: SUBCUTANEOUS, Route [Promoter]: ORAL, Species: HAMSTER, Strain/Sex: SYRIAN/FEMALE) “pancreas: adenocarcinoma; liver: hepatocellular adenoma or carcinoma”; (Carcinogen: N-NITROBIS(2-OXOPROPYL)AMINE, 60599-38-4, Doses [Carcinogen]: 10 MG/KG BW 1/WK FOR 3 WK, Doses [Promoter]: 0, 300 PPM IN DIET FOR 37 WK BEGINNING POST CARCINOGEN TREATMENT (STUDY DURATION: 40 WK), Route [Carcinogen]: SUBCUTANEOUS, Route [Promoter]: ORAL, Species: HAMSTER, Strain/Sex: SYRIAN/FEMALE) “liver: hepatocellular adenoma or carcinoma”.
On to `CNC[C@H](O)c1cccc(O)c1`, for which the outcome is on record as “stomach: adenocarcinoma” (Carcinogen: N-METHYL-N'-NITRO-N-NITROSOGUANIDINE, 70-25-7, Doses [Carcinogen]: 25 UG/ML IN DRINKING WATER FOR 20 WK, Doses [Promoter]: 0, 6 MG/KG BW IN OLIVE OIL 1/2 D BEGINNING POST CARCINOGEN TREATMENT (STUDY DURATION: 52 WK), Route [Carcinogen]: ORAL, Route [Promoter]: SUBCUTANEOUS, Species: RAT, Strain/Sex: WISTAR/MALE) and “glandular stomach: adenocarcinoma” (Carcinogen: N-METHYL-N'-NITRO-N-NITROSOGUANIDINE, 70-25-7, Doses [Carcinogen]: 25 UG/ML IN DRINKING WATER FOR 25 WK, Doses [Promoter]: 0, 6 MG/KG BW 1/2 D FOR 27 WK BEGINNING POST CARCINOGEN TREATMENT (STUDY DURATION: 52 WK), Route [Carcinogen]: ORAL, Route [Promoter]: SUBCUTANEOUS, Species: RAT, Strain/Sex: WISTAR/MALE).
With `[Na+]`, the outcome runs as follows: (Carcinogen: N-BUTYL-N-(4-HYDROXYBUTYL)NITROSAMINE, 3817-11-6, Doses [Carcinogen]: 0.05% IN DRINKING WATER FOR 4 WK, Doses [Promoter]: 0, 2.34% IN DIET BEGINNING POST LAST CARCINOGEN DOSE AND CONTINUING FOR 32 WK (STUDY DURATION: 37 WK), Route [Carcinogen]: ORAL, Route [Promoter]: ORAL, Species: RAT, Strain/Sex: WISTAR/MALE) “urinary bladder: papilloma”; (Carcinogen: N-METHYL-N'-NITRO-N-NITROSOGUANIDINE, 70-25-7, Doses [Carcinogen]: 0.25 ML/10 G BW OF A 5 G/L DISTILLED WATER SOLUTION (7.5-8.8 MG/RAT) ONCE, Doses [Promoter]: 0, 10% IN DIET BEGINNING POST CARCINOGEN DOSE AND CONTINUING FOR STUDY DURATION (STUDY DURATION: 1 YR), Route [Carcinogen]: INTRAGASTRIC, Route [Promoter]: ORAL, Species: RAT, Strain/Sex: ACI/MALE) “forestomach: squamous carcinoma”; (Carcinogen: N-METHYL-N'-NITRO-N-NITROSOGUANIDINE, 70-25-7, Doses [Carcinogen]: 25 UG/ML IN DRINKING WATER FOR 25 WK, Doses [Promoter]: 0, 10% IN DIET FOR 26 WK BEGINNING 1 WK POST CARCINOGEN TREATMENT (STUDY DURATION: 52 WK), Route [Carcinogen]: ORAL, Route [Promoter]: ORAL, Species: RAT, Strain/Sex: WISTAR/MALE) “glandular stomach: adenocarcinoma”; (Carcinogen: N-METHYL-N'-NITRO-N-NITROSOGUANIDINE, 70-25-7, Doses [Carcinogen]: 100 PPM IN DRINKING WATER FOR 8 WK, Doses [Promoter]: 0, 5, 10% IN DIET FOR 82 WK BEGINNING POST CARCINOGEN TREATMENT (STUDY DURATION: 90 WK), Doses [Promoter]: 0, 5, 10% IN DIET FOR 82 WK BEGINNING POST CARCINOGEN TREATMENT (STUDY DURATION: 90 WK), Route [Carcinogen]: ORAL, Route [Promoter]: ORAL, Species: RAT, Strain/Sex: WISTAR/MALE) “glandular stomach: adenoma or adenocarcinoma”; (Carcinogen: N-METHYL-N'-NITRO-N-NITROSOGUANIDINE, 70-25-7, Doses [Carcinogen]: 100 PPM IN DRINKING WATER FOR 10 WK, Doses [Promoter]: 0, 2.5, 5% IN DIET FOR 62 WK BEGINNING POST CARCINOGEN TREATMENT (STUDY DURATION: 72 WK), Doses [Promoter]: 0, 2.5, 5% IN DIET FOR 62 WK BEGINNING POST CARCINOGEN TREATMENT (STUDY DURATION: 72 WK), Route [Carcinogen]: ORAL, Route [Promoter]: ORAL, Species: RAT, Strain/Sex: WISTAR/MALE) “stomach: adenocarcinoma”; (Carcinogen: N-[4-(5-NITRO-2-FURYL)-2-THIAZOLYL]FORMAMIDE, 24554-26-5, Doses [Carcinogen]: 0.2% IN DIET FOR 6 WK, Doses [Promoter]: 0, 1.34% IN PROLAB DIET FOR 72 WK BEGINNING POST CARCINOGEN TREATMENT (STUDY DURATION: 78 WK), Route [Carcinogen]: ORAL, Route [Promoter]: ORAL, Species: RAT, Strain/Sex: F344/MALE) “urinary bladder: carcinoma, carcinoma and papilloma”.
As for `CCC1(CC)C(=O)NC(=O)NC1=O`, for the setting “Carcinogen: DIETHYLNITROSAMINE, 55-18-5, Doses [Carcinogen]: 80 MG/KG BW ONCE, Doses [Promoter]: 0, 0.5% IN DIET FOR 39 WK BEGINNING 1 WK POST CARCINOGEN DOSE (STUDY DURATION: 40 WK), Route [Carcinogen]: INTRAPERITONEAL, Route [Promoter]: ORAL, Species: RAT, Strain/Sex: F344/MALE”, the outcome is reported as “liver: tumor”.
For `C[C@]12CC[C@@H]3c4ccc(O)cc4CC[C@H]3[C@@H]1CCC2=O`, the outcome (Carcinogen: N-METHYL-N-NITROSOUREA, 684-93-5, Doses [Carcinogen]: 1 MG/100 G BW INJECTED INTO LEFT UTERINE TUBE ONCE, Doses [Promoter]: 0, 25 PPM IN DIET BEGINNING 1 WK POST CARCINOGEN TREATMENT (STUDY DURATION: 30 WK), Route [Carcinogen]: INJECTION, Route [Promoter]: ORAL, Species: MOUSE, Strain/Sex: ICR/FEMALE) is “uterus (left): adenocarcinoma”.
For `CCCCCCCCCCCCCCCCCC(=O)O[C@@]12C[C@@H](C)[C@@]3(O)[C@@H](C=C(CO)C[C@]4(O)C(=O)C(C)=C[C@@H]34)[C@@H]1C2(C)C`, the outcome (Carcinogen: 7,12-DIMETHYLBENZ[A]ANTHRACENE, 57-97-6, Doses [Carcinogen]: 100 NMOL ONCE, Doses [Promoter]: 0, 100 NMOL 2/WK FOR 39 WK (STUDY DURATION: 39 WK), Route [Carcinogen]: DERMAL, Route [Promoter]: DERMAL, Species: MOUSE, Strain/Sex: NMRI) was “skin: tumor”.
Turning to `CNCCC(Oc1ccc(C(F)(F)F)cc1)c1ccccc1` (stereo unspecified), the outcome is, setting by setting: (Carcinogen: 7,12-DIMETHYLBENZ[A]ANTHRACENE, 57-97-6, Doses [Carcinogen]: 20 MG IN 2 ML PEANUT OIL ONCE, Doses [Promoter]: 0, 16 MG/M2 5 D/WK FOR 15 WK BEGINNING POST CARCINOGEN DOSE (STUDY DURATION: 15 WK), Route [Carcinogen]: GAVAGE, Route [Promoter]: INTRAPERITONEAL, Species: RAT, Strain/Sex: SPRAGUE-DAWLEY/FEMALE) “mammary gland: tumor”; (Carcinogen: 7,12-DIMETHYLBENZ[A]ANTHRACENE, 57-97-6, Doses [Carcinogen]: 20 MG IN 2 ML PEANUT OIL ONCE, Doses [Promoter]: 0, 40 MG/M2 5 D/WK FOR 15 WK BEGINNING POST CARCINOGEN DOSE (STUDY DURATION: 15 WK), Route [Carcinogen]: GAVAGE, Route [Promoter]: INTRAPERITONEAL, Species: RAT, Strain/Sex: SPRAGUE-DAWLEY/FEMALE) “mammary gland: tumor”.
